Test results as given in the CheMixHub viscosity set.

Experiment: xn = mol fraction of the nth substance listed

CCCCCCCCCC(=O)OC + CCCCO
viscosity [mPa·s], 100 kPa
Conditions | 293.15 K | 298.15 K | 303.15 K | 308.15 K | 313.15 K | 318.15 K | 323.15 K
x1 = 0.09981 | 2.423 | 2.148 | 1.914 | 1.709 | 1.538 | 1.386 | 1.254
x1 = 0.1 | – | 2.153 | 1.921 | 1.715 | 1.537 | 1.384 | –
x1 = 0.2 | – | 1.948 | 1.745 | 1.569 | 1.419 | – | –
x1 = 0.2003 | 2.159 | 1.939 | 1.74 | 1.566 | 1.418 | 1.287 | 1.173
x1 = 0.3 | – | 1.841 | 1.656 | 1.504 | 1.359 | – | –
x1 = 0.3001 | 2.041 | 1.827 | 1.646 | 1.489 | 1.353 | 1.235 | 1.13
x1 = 0.3993 | 1.973 | 1.773 | 1.602 | 1.454 | 1.326 | 1.214 | 1.116
x1 = 0.4 | – | 1.794 | 1.616 | 1.464 | 1.333 | – | –
x1 = 0.5 | – | 1.765 | 1.597 | 1.452 | 1.332 | – | –
x1 = 0.501 | 1.95 | 1.755 | 1.59 | 1.446 | 1.322 | 1.213 | 1.117
x1 = 0.6001 | – | 1.77 | 1.6 | 1.458 | 1.331 | – | –
x1 = 0.6002 | 1.944 | 1.751 | 1.589 | 1.448 | 1.325 | 1.218 | 1.124
x1 = 0.6999 | – | 1.779 | 1.613 | 1.471 | 1.347 | – | –
x1 = 0.7028 | 1.958 | 1.767 | 1.603 | 1.463 | 1.341 | 1.234 | 1.14
x1 = 0.7953 | 1.986 | 1.793 | 1.629 | 1.487 | 1.364 | 1.257 | 1.163
x1 = 0.7987 | – | 1.808 | 1.646 | 1.497 | 1.372 | – | –
x1 = 0.8967 | – | 1.846 | 1.678 | 1.532 | 1.407 | – | –
x1 = 0.8999 | 2.03 | 1.835 | 1.668 | 1.524 | 1.399 | 1.29 | 1.194

O=[N+]([O-])[O-].[Na+] + O
viscosity [mPa·s]
Conditions | 293.15 K | 298.15 K | 303.15 K | 308.15 K | 313.15 K | 318.15 K
101 kPa, x1 = 0.0371 | – | – | – | – | 0.78 | –
101 kPa, x1 = 0.0564 | – | 1.19 | – | – | 0.89 | –
101 kPa, x1 = 0.0768 | – | 1.3 | – | – | 1.02 | –
101 kPa, x1 = 0.0978 | – | 1.63 | – | – | 1.2 | –
101 kPa, x1 = 0.12 | – | 1.92 | – | – | 1.41 | –
101.1 kPa, x1 = 0.0001893 | 1.003 | 0.892 | 0.799 | 0.721 | 0.654 | 0.598
101.1 kPa, x1 = 0.0007456 | 1.004 | 0.893 | 0.8 | 0.722 | 0.655 | 0.6
101.1 kPa, x1 = 0.0018 | 1.007 | 0.895 | 0.803 | 0.725 | 0.658 | 0.602
101.1 kPa, x1 = 0.007199 | 1.02 | 0.909 | 0.817 | 0.738 | 0.662 | 0.608
101.1 kPa, x1 = 0.01603 | 1.032 | 0.923 | 0.83 | 0.75 | 0.676 | 0.618
101.1 kPa, x1 = 0.0211 | 1.052 | 0.934 | 0.836 | 0.754 | 0.682 | 0.623
101.3 kPa, x1 = 0.0009 | 1.005 | 0.8932 | 0.8005 | 0.7222 | – | 0.5989
101.3 kPa, x1 = 0.0018 | 1.007 | 0.8955 | 0.8028 | 0.7247 | – | 0.6018
101.3 kPa, x1 = 0.00893 | 1.025 | 0.915 | 0.8225 | 0.7446 | – | 0.6207
101.3 kPa, x1 = 0.0177 | 1.058 | 0.9465 | 0.853 | 0.7732 | – | 0.6476
101.3 kPa, x1 = 0.03478 | 1.15 | 1.032 | 0.9323 | 0.8482 | – | 0.7131
101.3 kPa, x1 = 0.05127 | 1.275 | 1.144 | 1.034 | 0.9397 | – | 0.7913
101.3 kPa, x1 = 0.06722 | 1.418 | 1.271 | 1.148 | 1.043 | – | 0.8782
101.3 kPa, x1 = 0.09755 | 1.796 | 1.604 | 1.444 | 1.309 | – | 1.097
101.3 kPa, x1 = 0.126 | 2.231 | 1.983 | 1.778 | 1.606 | – | 1.338
101.33 kPa, x1 = 0.000905 | – | – | – | 0.7324 | 0.6609 | –
101.33 kPa, x1 = 0.002718 | – | – | – | 0.7422 | 0.6695 | –
101.33 kPa, x1 = 0.00453 | – | – | – | 0.7525 | 0.6763 | –
101.33 kPa, x1 = 0.006344 | – | – | – | 0.7606 | 0.6855 | –
101.33 kPa, x1 = 0.008159 | – | – | – | 0.7705 | 0.6992 | –
101.33 kPa, x2 = 0.84 | 3.04 | – | – | – | – | –
101.33 kPa, x2 = 0.86 | 2.507 | – | – | – | – | –
101.33 kPa, x2 = 0.88 | 2.15 | – | – | – | – | –
101.33 kPa, x2 = 0.89 | 2.088 | – | – | – | – | –
101.33 kPa, x2 = 0.91 | 1.752 | – | – | – | – | –
101.33 kPa, x2 = 0.92 | 1.502 | – | – | – | – | –
101.33 kPa, x2 = 0.94 | 1.384 | – | – | – | – | –
